Like-named read-outs stand apart in the source and are kept apart here.
Key:
[1] = Toxicity (CC50) in Hep G2 2.2.15 cell lines, anti-HBV test; type: cell-based; details: human, hep g2 2.2.15 cells
Protocol: (§1) The anti-HBV activity of the compounds according to the present invention, was tested in Hep G2 2.2.15 cell lines, as using 2',3'-dideoxycytidine as a control compound.

HBV [2] = assay: Test of Anti-HBV Activity in Hep G2 2.2.15 cell lines; type: cell-based; details: for EC50 / EC90: Hepatitis B virus, HepG2 2.2.15
Protocol: as §1

HBV [3] = details: Proc. Natl. Acad. Sci. USA, 88, 8495 (1991); Biochem. Pharm., 47, 171 (1994); cited from earlier work
[4] = Hep G2 2.2.15 cell lines, anti-HBV activity, read-out: EC50
[5] = Hep G2 2.2.15 cell lines, anti-HBV activity, read-out: EC90

| SMILES | CC50 [1] | EC50 (HBV [2]; [4]) | EC90 (HBV [2]; [5]) | Sl (CC50 /EC90) (HBV [2]; human, hep g2 2.2.15 cells) | anti-HBV activity (reported) (HBV [3]) | EC50 (HBV [2]) | EC90 (HBV [2]) | Sl (CC50 /EC90) (HBV [2]; ratio CC50 /EC90, Hep G2 2.2.15 cell lines) |
| --- | --- | --- | --- | --- | --- | --- | --- | --- |
| Cc1cn([C@@H]2C[C@](F)(CO)CO2)c(=O)[nH]c1=O (relative stereo) [Compound 5, cis-2-(Thymin-1-yl)-4-fluoro-4-hydroxymethyltetrahydrofuran] | 472 µM | 0.1 µM | 0.8 µM | 590 |  |  |  |  |
| Cc1cn([C@H]2C[C@](F)(CO)CO2)c(=O)[nH]c1=O (relative stereo) [Compound 6, trans-2-(Thymin-1-yl)-4-fluoro-4-hydroxymethyltetrahydrofuran] | 2320 µM | 0.2 µM | 1 µM | 2,321 |  |  |  |  |
| Nc1ccn([C@@H]2C[C@](F)(CO)CO2)c(=O)n1 (relative stereo) [Compound 7, cis-2-(Cytosin-1-yl)-4-fluoro-4-hydroxymethyltetrahydrofuran] | 1550 µM | 0.011 µM | 0.143 µM | 10,811 |  |  |  |  |
| Nc1ccn([C@H]2C[C@](F)(CO)CO2)c(=O)n1 (relative stereo) [Compound 8, trans-2-(Cytosin-1-yl)-4-fluoro-4-hydroxymethyltetrahydrofuran] | 1500 µM | 0.08 µM | 0.522 µM | 2,874 |  |  |  |  |
| Nc1nc(=O)n([C@@H]2C[C@](F)(CO)CO2)cc1F (relative stereo) [Compound 9, cis-2-(5-Fluorocytosin-1-yl)-4-fluoro-4-hydroxymethyltetrahydrofuran] | 2230 µM | 0.8 µM | 0.7 µM | 319 |  |  |  |  |
| Nc1nc(=O)n([C@H]2C[C@](F)(CO)CO2)cc1F (relative stereo) [Compound 10, trans-2-(5-Fluorocytosin-1-yl)-4-fluoro-4-hydroxymethyltetrahydrofuran] | 955 µM | 0.061 µM | 0.835 µM | 1,444 |  |  |  |  |
| O=c1[nH]c(=O)n([C@@H]2C[C@](F)(CO)CO2)cc1I (relative stereo) [Compound 15, cis-2-(5-Iodouracil-1-yl)-4-fluoro-4-hydroxymethyltetrahydrofuran] | 2200 µM | 0.6 µM | 4.4 µM | 501 |  |  |  |  |
| O=c1[nH]c(=O)n([C@H]2C[C@](F)(CO)CO2)cc1I (relative stereo) [Compound 16, trans-2-(5-iodouracil-1-yl)-4-fluoro-4-hydroxymethyltetrahydrofuran] | 451 µM | 0.8 µM | 5.3 µM | 85 |  |  |  |  |
| Nc1ccn([C@H]2CS[C@@H](CO)O2)c(=O)n1 [2',3'-dideoxy-3'-thiacytidine] |  |  |  |  | have anti-HBV activity |  |  |  |
| Nc1nc(=O)n([C@@H]2CC[C@H](CO)O2)cc1F [2', 3'-dideoxy-β-L-5-fluorocytidine] |  |  |  |  | have anti-HBV activity |  |  |  |
| Nc1ccn([C@@H]2CC[C@H](CO)O2)c(=O)n1 [2', 3'-dideoxy-β-L-cytidine] |  |  |  |  | have anti-HBV activity |  |  |  |
| Nc1nc(=O)n([C@H]2CS[C@@H](CO)O2)cc1F [5-fluoro-2', 3'-dideoxy-3'-thiacytidine] |  |  |  |  | have anti-HBV activity |  |  |  |
| Nc1ccn([C@H]2CC[C@@H](CO)O2)c(=O)n1 [Control compound, 2',3'-dideoxycytidine, reference compound] | 1080 µM |  |  |  |  | 7.57 µM | 35 µM | 30.811 |

From patent US6072051A, “Nucleoside derivatives and process for preparing the same” (priority 1995, dated 2000)
